Results from PubChem BioAssay AID2060336 (Molecular Pharmacology Branch, DTP, NCI, 2025).

Tested on: 958767-090-R-J1-PDC spheroid growth
Assay: Anticancer human tumor 958767-090-R-J1-PDC patient-derived head and neck squamous carcinoma cell line growth inhibition [IpAb]
Settings: spheroids with HUVEC and MSC; for IC50: curve of first compound; for viability, T/C: stronger effect = lower value
Outline: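 Combinations with ipatasertib or abemaciclib were tested on tumour spheroids holding HUVEC (25%) and MSC (15%) alongside 60% malignant cells. Top concentration was at or near clinical Cmax (10 microM if undefined), descending in half-log steps.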
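Further: spheroids exposed to agents for 7 days.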
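Wherever viability, T/C is given: 100% = DMSO vehicle control wells.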

Structure (SMILES): C=CCn1c(=O)c2cnc(Nc3ccc(N4CCN(C)CC4)cc3)nc2n1-c1cccc(C(C)(C)O)n1 + CCN1CCN(Cc2ccc(Nc3ncc(F)c(-c4cc(F)c5nc(C)n(C(C)C)c5c4)n3)nc2)CC1
- IC50 (second compound 0.01 µM): 237 nM
- IC50 (second compound 0.0316 µM): 250 nM
- IC50 (second compound 0.1 µM): 338 nM
- IC50 (second compound 0.316 µM): 203 nM
- IC50 (second compound 1 µM): 994 nM
- viability, T/C (second compound 0.01 µM, first compound 0.0316 µM): 83.8%
- viability, T/C (second compound 0.01 µM, first compound 0.1 µM): 69.3%
- viability, T/C (second compound 0.01 µM, first compound 0.316 µM): 43%
- viability, T/C (second compound 0.01 µM, first compound 1 µM): 29%
- viability, T/C (second compound 0.01 µM, first compound 3.16 µM): 26.7%
- viability, T/C (second compound 0.01 µM, first compound 10 µM): 21.3%
- viability, T/C (second compound 0.0316 µM, first compound 0.0316 µM): 79.6%
- viability, T/C (second compound 0.0316 µM, first compound 0.1 µM): 67.3%
- viability, T/C (second compound 0.0316 µM, first compound 0.316 µM): 42.9%
- viability, T/C (second compound 0.0316 µM, first compound 1 µM): 34.7%
- viability, T/C (second compound 0.0316 µM, first compound 3.16 µM): 25%
- viability, T/C (second compound 0.0316 µM, first compound 10 µM): 21.5%
- viability, T/C (second compound 0.1 µM, first compound 0.0316 µM): 65.6%
- viability, T/C (second compound 0.1 µM, first compound 0.1 µM): 64%
- viability, T/C (second compound 0.1 µM, first compound 0.316 µM): 47.1%
- viability, T/C (second compound 0.1 µM, first compound 1 µM): 40.1%
- viability, T/C (second compound 0.1 µM, first compound 3.16 µM): 31.9%
- viability, T/C (second compound 0.1 µM, first compound 10 µM): 19.7%
- viability, T/C (second compound 0.316 µM, first compound 0.0316 µM): 65%
- viability, T/C (second compound 0.316 µM, first compound 0.1 µM): 47.1%
- viability, T/C (second compound 0.316 µM, first compound 0.316 µM): 44.1%
- viability, T/C (second compound 0.316 µM, first compound 1 µM): 46.7%
- viability, T/C (second compound 0.316 µM, first compound 3.16 µM): 33.2%
- viability, T/C (second compound 0.316 µM, first compound 10 µM): 21.5%
- viability, T/C (second compound 1 µM, first compound 0.0316 µM): 77.3%
- viability, T/C (second compound 1 µM, first compound 0.1 µM): 68.2%
- viability, T/C (second compound 1 µM, first compound 0.316 µM): 52.3%
- viability, T/C (second compound 1 µM, first compound 1 µM): 55%
- viability, T/C (second compound 1 µM, first compound 3.16 µM): 42.8%
- viability, T/C (second compound 1 µM, first compound 10 µM): 34.3%

Structure (SMILES): Cn1cnc2c(F)c(Nc3ccc(Br)cc3Cl)c(C(=O)NOCCO)cc21 + CCN1CCN(Cc2ccc(Nc3ncc(F)c(-c4cc(F)c5nc(C)n(C(C)C)c5c4)n3)nc2)CC1
- IC50 (second compound 0.01 µM): 29.3 nM
- IC50 (second compound 0.0316 µM): 27 nM
- IC50 (second compound 0.1 µM): 12.6 nM
- IC50 (second compound 0.316 µM): 9.64 nM
- IC50 (second compound 1 µM): 124 nM
- viability, T/C (second compound 0.01 µM, first compound 0.00949 µM): 71%
- viability, T/C (second compound 0.01 µM, first compound 0.03 µM): 49.4%
- viability, T/C (second compound 0.01 µM, first compound 0.0949 µM): 35.2%
- viability, T/C (second compound 0.01 µM, first compound 0.3 µM): 34.5%
- viability, T/C (second compound 0.01 µM, first compound 0.949 µM): 30%
- viability, T/C (second compound 0.01 µM, first compound 3 µM): 23.2%
- viability, T/C (second compound 0.0316 µM, first compound 0.00949 µM): 65%
- viability, T/C (second compound 0.0316 µM, first compound 0.03 µM): 47.7%
- viability, T/C (second compound 0.0316 µM, first compound 0.0949 µM): 36.9%
- viability, T/C (second compound 0.0316 µM, first compound 0.3 µM): 29.7%
- viability, T/C (second compound 0.0316 µM, first compound 0.949 µM): 29.3%
- viability, T/C (second compound 0.0316 µM, first compound 3 µM): 19.7%
- viability, T/C (second compound 0.1 µM, first compound 0.00949 µM): 53.1%
- viability, T/C (second compound 0.1 µM, first compound 0.03 µM): 41.9%
- viability, T/C (second compound 0.1 µM, first compound 0.0949 µM): 34.9%
- viability, T/C (second compound 0.1 µM, first compound 0.3 µM): 34.1%
- viability, T/C (second compound 0.1 µM, first compound 0.949 µM): 26.7%
- viability, T/C (second compound 0.1 µM, first compound 3 µM): 23.5%
- viability, T/C (second compound 0.316 µM, first compound 0.00949 µM): 51.9%
- viability, T/C (second compound 0.316 µM, first compound 0.03 µM): 41.9%
- viability, T/C (second compound 0.316 µM, first compound 0.0949 µM): 40.1%
- viability, T/C (second compound 0.316 µM, first compound 0.3 µM): 36.1%
- viability, T/C (second compound 0.316 µM, first compound 0.949 µM): 28%
- viability, T/C (second compound 0.316 µM, first compound 3 µM): 21.2%
- viability, T/C (second compound 1 µM, first compound 0.00949 µM): 69.3%
- viability, T/C (second compound 1 µM, first compound 0.03 µM): 67.2%
- viability, T/C (second compound 1 µM, first compound 0.0949 µM): 51.9%
- viability, T/C (second compound 1 µM, first compound 0.3 µM): 42.8%
- viability, T/C (second compound 1 µM, first compound 0.949 µM): 44.5%
- viability, T/C (second compound 1 µM, first compound 3 µM): 37%
